Source: US20080262068A1, “Method of Tonic Treatment With Oxyphenbutazone Derivatives” (A-Viral ASA, priority 2004, published 2008)
Read-outs that look alike come from different tables or passages of the source.

Legend:
[1] = Stability of ring-opened product in aqueous solution; format: physicochemical
Text: The product of Example 4 (PHBPQ, N-phenyl-2-hydroxy-2 butyl-1,3-propanal quinoneimine) was examined for stability in aqueous solution, followed by analysis by ^1H NMR spectroscopy.

[2] = test system: anti-CD3/anti-CD28 induced GM-CSF production; assay: anti-CD3/anti-CD28 induced GM-CSF production by PBMC (ELISA); format: cell-based, human; details: for IC50: 3 days anti-CD3/anti-CD28 stimulation, mean ± SD of at least 3 donors, 0.15-40 μM tested, read-out: IC50 aCD3/aCD28 stimulation (GM-CSF production); for concentration inhibiting GM-CSF production (total inhibition): concentration series up to 40 μM
Description: The medium used throughout this Example was Iscoves modified Dulbecco's medium (IMDM, Bio Whittaker, Verviers, Belgium) containing 100 U/ml penicillin, […] streptomycin (Gibco, Merelbeke, Belgium), 50 μM 2-mercaptoethanol (Sigma-Aldrich, Steinheim, Germany), 5% heat-inactivated fetal calf serum (FCS, Bodinco, Alkmaar, the Netherlands) and 20 mg/ml human transferrin (Sigma-Aldrich).
(§1) PBMC (peripheral blood mononuclear cells) were isolated from freshly drawn blood of a healthy donor and separated over a Percoll gradient (d=1.078, Pharmacia Fine Chemicals AB, Uppsala, Sweden). These isolated PBMC were cultured in 200 μl IMDM (2×10^5 cells/ml) at 37° C. in the presence of 5% CO2 in flat bottom plates (Nunc, Roskilde, Denmark). A combination of 1 μg/ml anti-CD3 and anti-CD28 (CLB.T3/4.E res. CLB.CD28/1, CLB, Amsterdam, The Netherlands) was used for T lymphocyte stimulation. For monocyte stimulation 100 pg/ml lipo-oligosaccharide (LOS, kind gift of Dr. J. Poolman, RIVM, Bilthoven, The Netherlands) was used.
(§2) Cytokine production of T lymphocytes was measured 3 days after anti CD3/anti CD28 stimulation. 1 day after LOS stimulation of the monocytes, cytokine production was measured. At the indicated times, supernatant was harvested and stored at −20° C. until used. IL-1b, IL-6, IL-8, IL-10, IL-12, IL-13, TNFa and IFNg were detected with ELISA kits (PeliKine-compact, CLB, Amsterdam, The Netherlands) according to the protocol. Summarized briefly, mAbs were coated on flat bottom microtitre plates (Nunc, Maxisorb) overnight in 100 μl 0.1 M sodiumbicarbonate at pH 9.6. All incubations were performed in 100 μl at room temperature. Plates were washed 5 times with PBS+0.02% Tween (Mallinckrodt Baker, Deventer, The Netherlands). Samples were incubated together with a biotinylated mAb for 2 hours in High Performance ELISA-buffer (CLB). Plates were washed 5 times with PBS+0.02% Tween and incubated with streptavidin-labeled poly-horseradish peroxidase (CLB) 1:1000 diluted in PBS+2% skimmed milk for 30 minutes. After 5 wash steps the plates were developed with TMB-substrate containing 0.003% H2O2, […] 3,5,3′,5′-tetramethylbenzidine (Merck, Darmstadt, Germany) in 0.11 M sodium acetate, pH 5.5. The reaction was stopped with an equal volume of 2 M H2SO4. The plates were measured in an ELISA-reader at 450 nm, using 540 nm for background measurements. GM-CSF was measured using a protocol similar to that used for the other cytokines. The GM-CSF Abs were a kind gift from Dr. G. Trinchieri (the Wistar Institute, Philadelphia, Pa., USA) In this assay the coating Ab was anti-GM-CSF 9.1 (used at 2 μg/ml), the biotinylated Ab was anti-GM-CSF 16.3 (0.1 μg/ml). rGM-CSF (Sandoz, Basel, Switzerland) and HGF 22.10 (CLB) were used for preparation of a standard curve.
IC50 values (the concentration of the compound needed to inhibit 50% of the maximum response) were determined by using 2-fold titration curves of the compound. The minimum concentration tested was 0.15 μM and the maximum concentration was 40 μM. […] IL-6 in the culture supernatant was determined after 24 h of LOS stimulation of the PBMC by ELISA. GM-CSF in the culture supernatant was determined after 3 days of anti-CD3/anti-CD28 stimulation of the PBMC by ELISA

[3] = test system: LOS induced IL-6 production; assay: LOS induced IL-6 production by PBMC (ELISA); format: cell-based, human; details: for IC50: 24 h LOS stimulation, mean ± SD of at least 3 donors, 0.15-40 μM tested
Description: The medium used throughout this Example was Iscoves modified Dulbecco's medium (IMDM, Bio Whittaker, Verviers, Belgium) containing 100 U/ml penicillin, […] streptomycin (Gibco, Merelbeke, Belgium), 50 μM 2-mercaptoethanol (Sigma-Aldrich, Steinheim, Germany), 5% heat-inactivated fetal calf serum (FCS, Bodinco, Alkmaar, the Netherlands) and 20 mg/ml human transferrin (Sigma-Aldrich). All used compounds are endotoxin free.
as §1, §2
IC50 values (the concentration of the compound needed to inhibit 50% of the maximum response) were determined by using 2-fold titration curves of the compound. The minimum concentration tested was 0.15 μM and the maximum concentration was 40 μM. Results represent the mean ±standard deviation of at least 3 donors. IL-6 in the culture supernatant was determined after 24 h of LOS stimulation of the PBMC by ELISA. GM-CSF in the culture supernatant was determined after 3 days of anti-CD3/anti-CD28 stimulation of the PBMC by ELISA

[4] = test system: monokine production by monocytes; assay: Effect on other monokines produced by stimulated monocytes; format: cell-based, human
Description: as §1
(§3) Cytokine production of T lymphocytes was measured 3 days after anti CD3/anti CD28 stimulation. 1 day after LOS stimulation of the monocytes, cytokine production was measured. At the indicated times, supernatant was harvested and stored at −20° C. until used. IL-1b, IL-6, IL-8, IL-10, IL-12, IL-13, TNFa and IFNg were detected with ELISA kits (PeliKine-compact, CLB, Amsterdam, The Netherlands) according to the protocol. Summarized briefly, mAbs were coated on flat bottom microtitre plates (Nunc, Maxisorb) overnight in 100 μl 0.1 M sodiumbicarbonate at pH 9.6. […] The plates were measured in an ELISA-reader at 450 nm, using 540 nm for background measurements. GM-CSF was measured using a protocol similar to that used for the other cytokines. […]

[5] = test system: Th1 and Th2 specific cytokine production; assay: Effect on lymphocyte specific cytokines (Th1 and Th2); format: cell-based, human
Description: as §1, §3

[6] = Human volunteers given 4-OH-OPB orally before LPS infusion: tolerability; format: in vivo; details: 200 mg orally, 2 hours before LPS 4 ng/kg i.v.
Description: Eight of the volunteers received 4-OH-OPB 200 mg orally as two tablets of 100 mg and eight were given placebo tablets. Placebo tablets were chemically identical with the exception of the presence of 4-OH-OPB. The study drug and placebo were administered 2 hours prior to infusion of […] coli lipopolysaccharide, lot G1, United States Pharmacopeial Convention, Rockville, Md.) was administered as a bolus intravenous injection at a dose of 4 ng/kg body weight. Blood was drawn directly prior to the administration of 4-OH-OPB, directly prior to injection of LPS and 0.5, 1, 1.5, 2, 3, 4, 5, 6, 8, 10 and 23 hours thereafter for plasma levels of 4-OH-OPB and/or metabolites. Blood was collected in heparinized tubes which were centrifuged at 3000 r.p.m. for 10 minutes at 4° C., after which 2 ml plasma was transferred in acid containing tubes. Blood for ex vivo production of cytokines in whole blood and mononuclear cell (MNC) cultures was taken directly prior to the administration of 4-OH-OPB and directly prior to the injection of LPS (t=-2 hrs and t=0 hrs). Heparinized whole blood or MNCs were incubated with medium, LOS or anti-CD3/CD28. […] Concentrations of TNF-α, IL-6, IL-8, IL-10 were determined in EDTA-anticoagulated plasma by Cytometric Bead Array (Human BD Cytometric Bead Array Kit, BD Biosciences Pharmingen, San Jose, Calif.).

[7] = LOS induced IL-6 production, PBMC

## N-phenyl-2-hydroxy-2-butyl-1,3-propanal quinoneimine [PHBPQ]
[1]; acidified solution
  re-conversion into 4-OH-OPB when the solution was acidified: not re-converted into 4-OH—OPB
[1]; aqueous solution, pH 7.4
  half-life: 2 to 2.5 h
[1]; pH 7.4
  stability compared with 4-OH-OPB: more stable

## CCCCC1C(=O)N(c2ccccc2)N(c2ccccc2)C1=O [PB, phenbutazone]
[2]; Homo sapiens, 72 h
  IC50: 30 ± 10 µM
[2]; three days incubation, up to 40 μM
  shape of dose-response curve for GM-CSF inhibition: shallow dose-response curve
[3]; Homo sapiens, PBMC
  IC50: > 40 µM

## CCCCC1C(=O)N(c2ccccc2)N(c2ccc(O)cc2)C1=O (stereo not shown) [OPB, oxyphenbutazone]
[2]; Homo sapiens, 72 h
  IC50: 25 ± 7 µM
[2]; three days incubation
  concentration inhibiting GM-CSF production (total inhibition): around 40 μM
[3]; Homo sapiens, PBMC
  IC50: 13 ± 12 µM
[3]; [7]
  concentration needed to inhibit IL-6 production compared to 4-OH-OPB: higher concentration

## CCCCC1(O)C(=O)N(c2ccccc2)N(c2ccc(O)cc2)C1=O (stereo not shown) [4-OH-OPB, 4-Hydroxy-oxyphenbutazone]
[2]; Homo sapiens, 72 h
  IC50: 0.8 ± 0.5 µM
[2]; three days incubation
  concentration inhibiting GM-CSF production (total inhibition): 1.25 µM
[3]; Homo sapiens, PBMC
  IC50: 0.6 ± 0.6 µM
[3]; IL-6 and GM-CSF production by PBMC in vitro
  cytokine inhibitory activity (IL-6 and GM-CSF production by PBMC in vitro): best inhibitor
[3]; [7]
  factor by which the IL-6 inhibiting concentration is lower than that for GM-CSF: 2
[4]; LOS-induced, monocytes
  inhibition of LOS-induced monokines compared with IL-6: inhibited identically
[4]; SAC (heat killed staphylococcus aureus cells) stimulus
  inhibition of SAC induced monokine production: also inhibited
[5]; PMA/ionomycin, PMA/anti-CD28 or anti-CD2/anti-CD28 antibodies
  inhibition of cytokine production induced by other stimuli: inhibited at similar concentration
[5]; anti-CD3/anti-CD28 stimulation
  effect on production of lymphocyte specific cytokines (Th1 and Th2): identical to the inhibition found for GM-CSF
[6]
  adverse events attributable to the compound: No adverse events
  complaints of epigastric pain: no complaints of epigastric pain

## O=C1N(c2ccccc2)N(c2ccc(O)cc2)C(=O)C1(O)CCS(=O)(=O)c1ccccc1 (stereo not shown) [4-OH-OPS, 4-ethylsuphonphenyl-4-hydroxy-1-phenyl-2-hydroxyphenyl-3,5-pyrazoladinedione]
[2]
  IC50: 30 ± 10 µM
[2]; three days incubation
  concentration inhibiting GM-CSF production (total inhibition): around 40 μM
[3]; [7]
  concentration needed to inhibit IL-6 production compared to 4-OH-OPB: higher concentration
[3]; PBMC
  IC50: 13 ± 4 µM
